From patent US9512161B2, “Hydroxyl, keto, and glucuronide derivatives of 3-(4-(7H-pyrrolo[2,3-D]pyrimidin-4-yl)-1H-pyrazol-1-yl)-3-cyclopentylpropanenitrile” (Incyte Corporation, priority 2009, dated 2016)

Assay: Metabolite profiling of plasma and urine from human subjects after administration of Compound I (HPLC-MS)
Assay type: in vivo
Settings: human subjects dosed with Compound I; LC-MS detection
Procedure: Metabolites 1-39 were isolated from human, rat or dog urine, plasma, or feces after administration of Compound I in connection with pharmacokinetic and toxicokinetic studies. The identity of the metabolites were determined after isolation of the metabolite using HPLC methods. Tandem MS/MS analysis and higher order MS^n experiments were conducted as required to elucidate structural information.
Plasma samples from all subjects were pooled by subject and/or by time point. The pooled plasma samples were prepared for HPLC-Radiometric analysis as follows: Aliquots of the pooled plasma samples were initially extracted with approximately two equivalent (W/V) volumes of 1% formic acid in HPLC-grade acetonitrile, followed by vigorous vortexing, and centrifugation to remove denatured plasma proteins. The supernatant was reserved and passed through a pre-conditioned Waters C-18 Solid phase extraction cartridge, and the filtrate retained. The SPE cartridge was retained. The remaining plasma pellet was then extracted three times with 1% formic acid in HPLC-grade acetonitrile/water (90/10), with centrifugation after each extraction. All supernatants were reserved. Each formic acid/acetonitrile/water extraction supernatant was used to elute the SPE cartridge. The SPE cartridge was then rinsed with 1% formic acid in methanol. All eluants were retained, combined, and evaporated under a stream of nitrogen at 30° C. The remainder of this extraction was reconstituted in approximately 0.6 ml of 0.1% formic acid in water, vortexed and centrifuged to remove particulate matter. The supernatant was then analyzed by HPLC-Flow Radiometry and HPLC-MS.
Aliquots of approximately equal amounts of urine from each of the subjects were pooled to represent appropriate time intervals post-dose. Prior to HPLC-Radiometric analysis, each pooled urine sample was centrifuged at 4,000 rpm for 10 min to remove particulate matter, then analyzed directly.
All samples were analyzed by either HPLC-Flow radiometry or HPLC-MS using analytical systems that were as identical as practicable. The HPLC-Flow Radiometry system consisted of an Agilent HP 1100 series Quaternary pump, Autosampler, and UV detector interfaced with a Raytest Ramona-90 flow scintillation detector with a 500 μL liquid scintillation cell. […] Mobile phase “A” consisted of 0.1% formic acid in HPLC-grade water, with mobile phase “B” consisting of HPLC-grade methanol/acetonitrile (1:1). Elution of analytes was achieved through use of a linear increasing gradient of mobile phase “B”. Two different gradient elution methods were employed at various times as needed. Chromatographic conditions for these two methods are outlined below in Tables 3 and 4. […]

| Matrix in which the metabolite was observed/found | Structure (SMILES) |
| --- | --- |
| plasma and urine | N#CCC(C1CCCC1)n1cc(-c2ncnc3c2C(O)C(O)N3)cn1 (stereo not shown) [Compound 40, 3-cyclopentyl-3-(4-(5,6-dihydroxy-6,7-dihydro-5H-pyrrolo[2,3-d]pyrimidin-4-yl)-1H-pyrazol-1-yl)propanenitrile] |
| plasma and urine | N#CCC(C1CCCC1)n1cc(-c2nc(O)nc3c2C(=O)CN3)cn1 (stereo not shown) [Compound 32, 3-cyclopentyl-3-(4-(2-hydroxy-5-oxo-6,7-dihydro-5H-pyrrolo[2,3-d]pyrimidin-4-yl)-1H-pyrazol-1-yl)propanenitrile] |
| urine | N#CCC(C1CCCC1)n1cc(-c2ncnc3c2ccn3C2OC(C(=O)O)C(O)C(O)C2O)cn1 (stereo not shown) [Compound 41, 6-(4-(1-(2-cyano-1-cyclopentylethyl)-1H-pyrazol-4-yl)-7H-pyrrolo[2,3-d]pyrimidin-7-yl)-3,4,5-trihydroxytetrahydro-2H-pyran-2-carboxylic acid] |
| urine | N#CCC(C1CCCC1)n1cc(-c2[nH]c(=O)nc3c2CC(=O)N3)cn1 (stereo not shown) [Compound 31, 3-cyclopentyl-3-(4-(2,6-dioxo-3,5,6,7-tetrahydro-2H-pyrrolo[2,3-d]pyrimidin-4-yl)-1H-pyrazol-1-yl)propanenitrile] |
